Values joined by “and” are separate entries in the source; they are usually repeats but may differ in a detail not shown here. Identical values can stand only once.
Experiment: In vivo biodistribution of [^99mTc]Tc-carvedilol in healthy Swiss albino mice
Conditions: for [^99mTc]Tc-carvedilol percentages of injected dose per Gram organ: i.v. tail vein
Source text: For biodistribution and receptor occupancy studies, 24 healthy adult Swiss albino mice (12 males and 12 females, aged 10–12 weeks, weighing 25–30 g) were obtained from the Egyptian National Research Center. Mice outside the 25–30 g weight range were excluded to ensure consistency in the biodistribution outcomes. Prior to the study, animals were housed in groups of four with ad libitum access to food and water and underwent a 2-week acclimatization period. After this adaptation phase, the mice were randomly assigned to the study groups using the lot-drawing method.
Given ^99mTc’s physical half-life of approximately 6 h, shorter imaging and sampling intervals are generally preferred to maximize radioactive signal fidelity and minimize decay-related variability. At 24 h post-injection, the residual ^99mTc activity could fall below quantifiable thresholds, potentially compromising the precision of biodistribution data. To prevent this, all data collection was restricted to early post-injection intervals—specifically […]—when radioactivity levels remain within optimal detection ranges for gamma counting. By omitting the 24 h time point altogether, the study design ensured that the radiotracer signal would be robust enough to yield statistically reliable biodistribution profiles without being confounded by the isotope’s exponential decay. Additionally, prior pilot studies were conducted to empirically determine the time window during which the radiochemical integrity and quantification signal-to-noise ratio remained analytically valid. These informed the exclusion of late-phase sampling and reinforced confidence in the reliability of kinetic data collected within the defined 6 h observation window. Therefore, six mice were euthanized at each selected time point via standardized cervical dislocation performed by trained personnel in accordance with institutional animal care guidelines. The procedure followed the AVMA Guidelines for the Euthanasia of Animals ([Kirkwood, 2013]), ensuring it was rapid, humane, and reproducible. To ensure procedural consistency, all cervical dislocations were performed by the same experienced researcher, following pre-established protocols that involved correct animal positioning, anatomical landmark identification, and verification of death through cessation of heartbeat and respiration. Immediately postmortem, body weight was recorded, and blood was collected via cardiac puncture.
Organ harvesting included the collection of the heart, liver, lungs, kidneys, spleen, stomach, intestines, muscle (right leg), bone, and brain. Following dissection, tissues were gently rinsed with isotonic saline to remove residual blood, promptly weighed, kept at low temperatures, and immediately subjected to gamma counting to preserve radiochemical integrity and avoid post-collection decay artifacts. No storage or freezing was used to prevent degradation or leakage of [^99mTc]Tc-carvedilol. Sample processing occurred in a shielded, on-site laboratory adjacent to the dissection area, ensuring minimal delay—typically less than 2 to 3 minutes—between collection and measurement.
To ensure methodological rigor and reproducibility, both experimental and computational components of the study were supported by a structured statistical framework. A total of 24 healthy albino mice (12 males, 12 females), aged 10–12 weeks and weighing 25 ± 3 g, were selected based on uniform health status, age, and weight to minimize inter-animal variability. Animals were maintained under controlled laboratory conditions (12-h light/dark cycle, standardized humidity, and temperature) with unrestricted access to food and water. For biodistribution analysis, animals were randomly assigned to four experimental groups, each consisting of six mice, each representing a distinct post-injection time point (15, 30, 60, and 120 min). […]

## COc1ccccc1OCC[N]1CC(COc2cccc3[nH]c4ccccc4c23)[O][99Tc]12(=[O])[O]C(COc1cccc3[nH]c4ccccc4c13)C[N]2CCOc1ccccc1OC (racemic) [[^99mTc]Tc-carvedilol]
Kidneys, 30 min post-injection
  [^99mTc]Tc-carvedilol percentages of injected dose per Gram organ: 32.753 ± 0.345 % ID/g organ and 32.753 ± 0.345 ^a % ID/g organ
Kidneys, 60 min post-injection
  [^99mTc]Tc-carvedilol percentages of injected dose per Gram organ: 24.392 ± 0.345 % ID/g organ
Kidneys, 120 min post-injection
  [^99mTc]Tc-carvedilol percentages of injected dose per Gram organ: 29.284 ± 0.012 % ID/g organ
Liver row, 15 min post-injection
  Residual [^99mTc]Tc-carvedilol percentages of injected dose per Gram in non-targeted organs: 92.740 ± 0.03 % ID/g
Liver row, 30 min post-injection
  Residual [^99mTc]Tc-carvedilol percentages of injected dose per Gram in non-targeted organs: 95.149 ± 0.01 % ID/g
Liver row, 120 min post-injection
  Residual [^99mTc]Tc-carvedilol percentages of injected dose per Gram in non-targeted organs: 93.895 ± 0.04 % ID/g
Liver, 15 min post-injection
  [^99mTc]Tc-carvedilol percentages of injected dose per Gram organ: 7.255 ± 0.023 % ID/g organ
Liver, 30 min post-injection
  [^99mTc]Tc-carvedilol percentages of injected dose per Gram organ: 4.841 ± 0.568 % ID/g organ
Liver, 120 min post-injection
  [^99mTc]Tc-carvedilol percentages of injected dose per Gram organ: 6.045 ± 1.020 % ID/g organ
Lung row, 15 min post-injection
  Residual [^99mTc]Tc-carvedilol percentages of injected dose per Gram in non-targeted organs: 98.710 ± 0.01 % ID/g
Lung row, 30 min post-injection
  Residual [^99mTc]Tc-carvedilol percentages of injected dose per Gram in non-targeted organs: 92.205 ± 0.01 % ID/g
Lung row, 60 min post-injection
  Residual [^99mTc]Tc-carvedilol percentages of injected dose per Gram in non-targeted organs: 95.410 ± 0.00 % ID/g
Lung row, 120 min post-injection
  Residual [^99mTc]Tc-carvedilol percentages of injected dose per Gram in non-targeted organs: 95.371 ± 0.04 % ID/g
Lung, 15 min post-injection
  [^99mTc]Tc-carvedilol percentages of injected dose per Gram organ: 1.290 ± 0.232 % ID/g organ
Lung, 30 min post-injection
  [^99mTc]Tc-carvedilol percentages of injected dose per Gram organ: 7.795 ± 0.060 % ID/g organ
Lung, 60 min post-injection
  [^99mTc]Tc-carvedilol percentages of injected dose per Gram organ: 4.590 ± 0.000 % ID/g organ
Lung, 120 min post-injection
  [^99mTc]Tc-carvedilol percentages of injected dose per Gram organ: 4.579 ± 0.111 % ID/g organ
Muscle row, 15 min post-injection
  Residual [^99mTc]Tc-carvedilol percentages of injected dose per Gram in non-targeted organs: 99.309 ± 0.02 % ID/g
Muscle row, 30 min post-injection
  Residual [^99mTc]Tc-carvedilol percentages of injected dose per Gram in non-targeted organs: 99.727 ± 0.01 % ID/g
Muscle row, 60 min post-injection
  Residual [^99mTc]Tc-carvedilol percentages of injected dose per Gram in non-targeted organs: 99.321 ± 0.02 % ID/g
Muscle row, 120 min post-injection
  Residual [^99mTc]Tc-carvedilol percentages of injected dose per Gram in non-targeted organs: 98.449 ± 0.03 % ID/g
Muscle, 15 min post-injection
  [^99mTc]Tc-carvedilol percentages of injected dose per Gram organ: 0.671 ± 0.195 % ID/g organ
Muscle, 30 min post-injection
  [^99mTc]Tc-carvedilol percentages of injected dose per Gram organ: 0.263 ± 0.215 % ID/g organ
Muscle, 60 min post-injection
  [^99mTc]Tc-carvedilol percentages of injected dose per Gram organ: 0.659 ± 0.217 % ID/g organ
Muscle, 120 min post-injection
  [^99mTc]Tc-carvedilol percentages of injected dose per Gram organ: 1.521 ± 0.201 % ID/g organ
Spleen row, 15 min post-injection
  Residual [^99mTc]Tc-carvedilol percentages of injected dose per Gram in non-targeted organs: 98.118 ± 0.02 % ID/g
Spleen row, 30 min post-injection
  Residual [^99mTc]Tc-carvedilol percentages of injected dose per Gram in non-targeted organs: 95.816 ± 0.01 % ID/g
Spleen row, 60 min post-injection
  Residual [^99mTc]Tc-carvedilol percentages of injected dose per Gram in non-targeted organs: 93.319 ± 0.05 % ID/g
Spleen row, 120 min post-injection
  Residual [^99mTc]Tc-carvedilol percentages of injected dose per Gram in non-targeted organs: 97.701 ± 0.02 % ID/g
Spleen, 15 min post-injection
  [^99mTc]Tc-carvedilol percentages of injected dose per Gram organ: 1.852 ± 0.151 % ID/g organ
Spleen, 30 min post-injection
  [^99mTc]Tc-carvedilol percentages of injected dose per Gram organ: 4.174 ± 0.019 % ID/g organ
Spleen, 60 min post-injection
  [^99mTc]Tc-carvedilol percentages of injected dose per Gram organ: 6.631 ± 0.019 % ID/g organ
Spleen, 120 min post-injection
  [^99mTc]Tc-carvedilol percentages of injected dose per Gram organ: 2.279 ± 0.126 % ID/g organ
Stomach row, 15 min post-injection
  Residual [^99mTc]Tc-carvedilol percentages of injected dose per Gram in non-targeted organs: 98.807 ± 0.01 % ID/g
Stomach row, 30 min post-injection
  Residual [^99mTc]Tc-carvedilol percentages of injected dose per Gram in non-targeted organs: 98.433 ± 0.04 % ID/g
Stomach row, 60 min post-injection
  Residual [^99mTc]Tc-carvedilol percentages of injected dose per Gram in non-targeted organs: 95.706 ± 0.03 % ID/g
Stomach row, 120 min post-injection
  Residual [^99mTc]Tc-carvedilol percentages of injected dose per Gram in non-targeted organs: 97.717 ± 0.06 % ID/g
Stomach, 15 min post-injection
  [^99mTc]Tc-carvedilol percentages of injected dose per Gram organ: 1.193 ± 0.201 % ID/g organ
Stomach, 30 min post-injection
  [^99mTc]Tc-carvedilol percentages of injected dose per Gram organ: 1.524 ± 0.259 % ID/g organ
Stomach, 60 min post-injection
  [^99mTc]Tc-carvedilol percentages of injected dose per Gram organ: 4.263 ± 0.259 % ID/g organ
Stomach, 120 min post-injection
  [^99mTc]Tc-carvedilol percentages of injected dose per Gram organ: 2.239 ± 0.065 % ID/g organ

Reference: article PMC12280724 (Frontiers in Pharmacology, 2025)
